{
  "source": "patent US6797807B1",
  "about": "“Compounds and methods for cancer therapy” (Adherex Technologies, Inc., priority 1997, dated 2004)",
  "key": {"Adult rats": {"test_system": "Adult rats", "assay": "Miles assay for vascular permeability (Evans blue)", "format": "in vivo", "settings": "rat, 100 μg/ml peptide subdermal, OD at 620 nm; compared with PBS and the N-acetyl/C-amide peptides; FIG. 6, FIG. 8", "protocol": "The ability of an agent to modulate cell adhesion may generally be evaluated in vivo by assessing the effect on vascular permeability utilizing the Miles assay (McClure et al., J. Pharmacological & Toxicological Methods 32:49-52, 1994). Briefly, a candidate modulating agent may be dissolved in phosphate buffered saline (PBS) at a concentration of 100 μg/ml. Adult rats may be given 100 μl subdermal injections of each peptide solution into their shaved backs, followed 15 minutes later by a single 250 μl injection of 1% Evans blue dissolved in PBS into their tail veins. The subdermal injection sites may be visually monitored for the appearance of blue dye. Once the dye appears (about 15 minutes after injection), each subdermal injection site may be excised, weighed, and placed in 1 ml dimethylformamide for 24 hours to extract the dye. The optical density of the dye extracts may then be determined at 620 nm. In general, the injection of 0.1 ml of modulating agent (at a concentration of 0.1 mg/ml) into the backs of rats causes an increase of dye accumulation at the injection sites of at least 50%, as compared to dye accumulation at sites into which PBS has been injected.\nThe ability of cyclic and linear peptides to increase vascular permeability was assessed utilizing the Miles assay (McClure et al., J. Pharmacological & Toxicological Meth. 32:49-521994). The peptides were dissolved in phosphate buffered saline (PBS) at a concentration of 100 μg/ml. Adult rats were given 100 μl subdermal injections of each peptide solution into their shaved backs, followed 15 minutes later by a single 250 μl injection of 1% Evans blue dissolved in PBS into their tail veins. The subdermal injection sites were visually monitored for the appearance of blue dye. Once the dye appeared (15 minutes after injection), each subdermal injection site was excised, weighed, and placed in 1 ml dimethylformamide for 24 hours to extract the dye. The optical density of the dye extracts was determined at 620 nm. […]"}, "HUVEC": {"test_system": "HUVEC", "assay": "Immunofluorescence analysis of occludin in HUVEC", "format": "cell-based, human", "settings": "200 μg/mL peptide vs vehicle; FIG. 12B", "protocol": "For immunofluorescence analysis of occludin, HUVEC grown on glass coverslips were treated with vehicle (FIG. 12A) or 200 μg/mL peptide 76 (FIG. 12B). Cells were fixed with methanol and acetone and stained for occludin (Kevil et al., Microcirculation 5:197-210, 1998). Immunofluorescent staining was performed with anti-occludin polyclonal antibody (Zymed, San Francisco, Calif. used at a concentration of 4 μg/ml) and Cy3-conjugated goat anti-rabbit secondary Ab (Jackson Labs, Westgrove, Pa., used at a 1:250 dilution), and analyzed by fluorescence microscope. […] The photographs shown are representative of at least 20 different fields observed in each experiment and of three independent experiments. Bar=25 μm."}, "[1]": {"test_system": "Human neutrophils (polymorphonuclear leukocytes, PMN) on HUVEC monolayers", "assay": "Neutrophil (PMN) transendothelial migration across HUVEC monolayers with fMLP", "format": "cell-based", "settings": "10^-7 M fMLP, vs control with fMLP, FIGS. 10-11", "protocol": "A further assay for evaluating modulating agent activity involves determining an effect of a candidate agent on neutrophil migration on endothelial cells. Within such assays, endothelial cells (e.g., HUVEC) may be harvested and cultured using standard techniques. Cells are grown to confluence on 8.0 μm pore cell culture inserts (Falcon, Franklin Lake, N.J.) essentially as described by Ohno et al., Inflammation 21(3):313-24, 1997. Radiolabeled human neutrophils (polymorphonuclear leukocytes, PMN) are added to the apical surface of HUVEC monolayers and allowed to migrate. Migration assays are generally performed in the presence of 10^−7 M N-formyl-methionyl-leucyl-phenylalanine (fMLP), a chemoattractant that causes the leukocytes to undergo diapedesis. PMN migration may be quantitated as follows: [formula]\nHuman umbilical vein endothelial cells (HUVEC) were harvested from umbilical cords by 0.2% collagenase treatment essentially as described by Yoshida et al., Am. […]\nFor neutrophil diapedesis experiments, HUVEC were grown to confluence on 8.0 μm pore cell culture inserts (Falcon, Franklin Lake, N.J.) essentially as described by Ohno et al., inflammation 21(3):313-24, 1997. […] The cells were then washed twice with cold phosphate-buffered saline (PBS), spun at 250 g for 8 minutes to remove unincorporated radioactivity and resuspended in PBS. […]\nPMN migration was quantitated as follows: [formula]"}},
  "data": [
    {"substance": "H-CLYHYC-OH (also: cyclic, kind not given here) [Peptide 5]", "values": [
      {"measurement": "optical densities of dimethylformamide dye extracts from excised injection sites", "setting": "Adult rats", "value": "more dye was extracted"},
      {"measurement": "occludin staining and intercellular gaps in HUVEC", "setting": "HUVEC", "value": "gaps between adjacent endothelial cells and the lack of junctional proteins at these gaps"},
      {"measurement": "fMLP-stimulated neutrophil transendothelial migration", "setting": "[1]", "value": "increase fMLP-stimulated transendothelial migration"}
    ]}
  ]
}
